{"source": "paper PMC8466728", "about": "“DNA Intercalators Inhibit Eukaryotic Ribosomal RNA Synthesis by Impairing the Initiation of Transcription” (Genes, 2021)", "key": {"[1]": {"test_system": "Pol-I specific transcription", "test": "Pol-I specific transcription in vitro with or without Top 1 (purified GTFs or HeLa NE; immobilized linear or supercoiled template)", "type": "biochemical, human", "details": "GTFs lacking Top 1 + immobilized linear template, HeLa NE + supercoiled plasmid", "protocol": "(§1) Specific Pol I driven transcription reactions were performed as described using 200 ng of supercoiled plasmid DNA or immobilized rDNA promoter. Reactions were supplemented with 1 µL HeLa nuclear extract or with highly purified general transcription factors (GTF: 2 µL SL1, 2.5 µL Pol-I and 0.1 µL UBF). S1 nuclease protection was performed as described with a 60 bp ^32P-5′-end labelled oligonucleotide containing a sequence identical to the region between −20 and +40 of the template strand in the human rRNA gene promoter. […] The standard deviations were calculated from three independent experiments."}, "[2]": {"test_system": "Pol-I transcription (rRNA synthesis) in HCT116 p53−/− cells", "test": "IC50 of Pol-I transcription (rRNA synthesis) in cells", "type": "cell-based, human", "details": "Homo sapiens", "protocol": "(§2) Cells were grown until 70% confluent and then treated with compounds for 30 min. The following concentrations were used: ActD: AD1–3 nM; AD2–3 µM; Camptothecin (CPT): 8 µM; ethidium bromide (EB): 40 µM; crystal violet (CV): 20 µM; Pro: 2 µM; CX5461: 5 µM. RNA was purified using the RNeasy purification kit (Qiagen) following the manufacturer’s instructions and the RNA concentration was determined spectroscopically. A total 1 µg of RNA was converted to cDNA using the High Capacity RNA-to-cDNA reverse transcriptase kit (Applied Biosystems, Waltham, MA, USA). Then 47/45S pre-rRNA levels were analyzed on the LighCycler 480 thermocycler (Roche) using primers and conditions described previously.\nNext, we determined IC50 concentrations for EtBr, Pro, CPT, DAPI and CV in cells by measuring the level of Pol-I transcription at various compound concentrations (Table 2). For this assay we used the HCT116 p53^−/− cell line to avoid any effect of p53 dependent repression of Pol-I transcription."}, "[3]": {"test_system": "nascent RNA synthesis in HCT116 p53−/− cells", "test": "Nascent RNA detection in cells by 5EU incorporation (click labelling, confocal microscopy)", "type": "cell-based, human", "details": "30 min treatment then 1 h 5EU", "protocol": "Cells were grown until 50–60% confluent on sterilized glass slides (Superfrost® Plus microscope slides, Menzel-Glaser) and then were treated with compounds or vehicle (as indicated) for 30 min, followed by the addition of 5EU (5-Ethynyl-uridine, 1 mM final concentration) and further incubation for 1 h. The following concentrations were used: Actinomycin D (ActD): 3 µM; ethidium bromide (EB): 40 µM; proflavine (Pro): 2 µM; CX5461: 5 µM.\nCells were fixed with 3.7% paraformaldehyde and permeabilized with 0.5% Triton X-100 in PBS. Nascent RNA was fluorescently labelled using Click-IT® Cell Reaction Buffer Kit (Invitrogen, Waltham, MA, USA) supplemented with Cy5 Azide (Sigma Aldrich) according to manufacturer’s instruction. Nuclei were stained with Hoechst 33342 and images were acquired with a Leica TCS SP5 confocal microscope equipped with an x63 oil-filled objective. Leica Application Suite X (LAS X) software was used for quantification of 5EU incorporation. Box-and-whisker plots of quantification of 5EU incorporation were obtained with Excel. They show the median, the 25% and 75% quantiles, as well as outliers.\nAlthough we see no significant effect of the intercalators and grove-binders on specific Pol-II transcription in vitro we performed experiments aiming to explore effect of these compounds on general level of Pol-II/III transcription in cells. To this end we used two approaches. Firstly, we measure the level of nascent RNA synthesis in […] p53^−/− cells treated with proflavine, ethidium bromide, CX-5461 (specific inhibitor of Pol-I transcription) at concentrations sufficient to inhibit about 90% of Pol-I transcription as shown in Figure 5A. As a control we used high concentration of ActD (3µM) that inhibits activity of all […] polymerases. Cells were treated with the selected compounds or a vehicle for 30 min and then 5EU (5-Ethynyl-uridine) was added and incubation was continued for another hour. During this time, 5EU is incorporated into any newly synthesized RNA, and the level of incorporation can later be assessed using a combination of “click” approach and confocal microscopy."}, "[4]": {"test_system": "Pol-II transcription in HCT116 p53+/+ cells", "test": "Pol-II transcripts (18 house-keeping genes) by qPCR in cells expressing wt p53", "type": "cell-based, human", "details": "cells expressing wt p53, 30 min; concentrations as Figure S2", "protocol": "as §2\n(§3) Pol-II and Pol-III transcripts were analyzed as described previously. All signals were normalized to 18S rRNA level. The standard deviation was calculated from three independent experiments.\n(§4) As a complimentary approach we also measured the effect of intercalators and grove binders on transcription by Pol-II and Pol-III by determining relative expression levels of 18 house-keeping genes (the Human Housekeeper reference gene plate, Roche) and of three Pol-III dependent genes in intercalator treated and untreated HCT116 p53^−/− and p53^+/+ cells as described previously.\nFigure S2. […] Total RNA was isolated, reverse transcribed and analysed by qPCR. […]"}, "[5]": {"test_system": "Pol II/III transcription in HCT116 p53−/− cells", "test": "Pol-II (18 house-keeping genes) and Pol-III transcripts by qPCR in p53 null cells", "type": "cell-based, human", "details": "30 min", "protocol": "as §2, §3, §4"}, "[6]": {"test_system": "UBF occupancy at the rDNA, HCT116 p53−/− cells", "test": "ChIP of the rDNA repeat: UBF occupancy", "type": "cell-based, human", "details": "30 min at IC50 in cells: EB 9.16 µM; CV 5 µM; Pro 0.5 µM", "protocol": "ChIP assays were carried out as described previously. In brief, cells were grown until 70% confluent, then treated with compounds for 30 min. The following concentrations were used: ethidium bromide (EB)—9.16 µM; crystal violet (CV)—5 µM; proflavine (Pro)—0.5 µM. Cells were cross-linked with formaldehyde (final concentration 1%) for 10 min, and the cross-linking stopped by the addition of glycine (final concentration 0.125 M) for 5 min. Cross-linked chromatin was sheared using a Biorupter (Diagenode, Liege, Belgium) until 300-base pair average size. Immunoprecipitation was carried out using chromatin isolated from 1 × 10^6 cells, antibodies listed in Supplementary Table S2 and 30 μL of Protein A/Protein G magnetic beads (Invitrogen). Purified immunoprecipitated DNA was analyzed by two tetraplex quantitative PCR panels designed for eight regions of the rDNA repeat; promoter, intergenic spacer 4 (IGS4), 18S, 5.8S, 28S, terminator, IGS1, and 5′externally transcribed spacer (ETS). […] Signal were quantified using internal standards and specific signals were calculated as a difference between the signals from the specific antibody and from the negative control (an appropriate IgG). Results were expressed as the amount relative to input chromatin and normalized to control IgG levels, with the standard deviations calculated from three independent ChIP experiments. […]"}, "[7]": {"test_system": "Pol-I specific transcription (human rRNA gene promoter)", "test": "In vitro Pol-I specific (promoter-driven) transcription assay, HeLa nuclear extract, S1 nuclease protection", "type": "biochemical", "details": "1 µL HeLa nuclear extract, 100 ng plasmid DNA containing rRNA promoter, triplicates", "protocol": "as §1, with “Specific Pol I driven transcription reactions were performed as described using 200 ng of supercoiled plasmid DNA or immobilized rDNA promoter.” left out\nWe tested a range of DNA intercalators and minor/major groove binders for the potential to inhibit Pol-I and determined IC50 for each drug using an in vitro Pol-I specific transcription assay. This assay primarily measures the efficiency of the initial stages of transcription which include preinitiation complex (PIC) formation, first phosphodiester bond synthesis and promoter clearance (see reviews and for a detailed description of the Pol-I transcription cycle). The reactions were supplemented with supercoiled rDNA template and HeLa nuclear extract (NE) and the level of specific transcript was determined by S1 nuclease protection assay as described."}, "[8]": {"test_system": "Pol-I transcription (47/45S pre-rRNA) in HCT116 p53−/− cells", "test": "47/45S pre-rRNA level in cells by qPCR", "type": "cell-based, human", "details": "30 min, CPT 8 µM, EB 40 µM, CV 20 µM, Pro 2 µM, CX5461 5 µM (Figure 5A)", "protocol": "as §2, §3"}}, "note": "pIC50: −log10 of the molar value. Like-named read-outs stand apart in the source and are kept apart here. Starred links: 1 amine or outer side, 2 acyl side, 3 side chain; linkers in the order of their positions; H or OH if unused. Positions of bridges follow the written chain, without caps; N, C: chain ends. Non-standard residues stand in square brackets, D forms with d. Residues, ends and D or L forms follow the SMILES beside them. Chains are numbered I, II in the order given. Actinocin(9to1) = Cc1c2oc3c(C)ccc(C(=O)[*:1])c3nc-2c(C(=O)[*:2])c(N)c1=O; NMeV = CN[C@H](C(=O)O)C(C)C; Sar = CNCC(=O)O"}
{"smiles": "CC[C@@]1(O)C(=O)OCc2c1cc1n(c2=O)Cc2cc3ccccc3nc2-1", "note": "[Camptothecin]", "values": [{"measurement": "effect on Pol-I specific transcription", "setting": "[1]", "value": "represses Pol-I specific transcription under all conditions"}, {"measurement": "pIC50", "setting": "[2]; HCT-116, read-out: IC50 (rRNA Synthesis)", "value": 5.70}]}
{"smiles": "Cc1c2oc3c(C)ccc(C(=O)N[C@@H]4C(=O)N[C@H](C(C)C)C(=O)N5CCC[C@H]5C(=O)N(C)CC(=O)N(C)[C@@H](C(C)C)C(=O)O[C@@H]4C)c3nc-2c(C(=O)N[C@@H]2C(=O)N[C@H](C(C)C)C(=O)N3CCC[C@H]3C(=O)N(C)CC(=O)N(C)[C@@H](C(C)C)C(=O)O[C@@H]2C)c(N)c1=O", "note": "[ActD, Actinomycin D] (I: T[dV]P[Sar][NMeV] / II: T[dV]P[Sar][NMeV]; ester I:1-I:C, II:1-II:C; linker I:N-II:N via Actinocin(9to1))", "values": [{"measurement": "5EU incorporation (RNA synthesis)", "setting": "[3]; 3 μM", "value": "almost completely abolished"}, {"measurement": "effect on mRNA levels of the genes tested", "setting": "[4]", "value": "quite significant"}, {"measurement": "effect on Pol II/III transcription", "setting": "[5]; AD1 3 nM ActD, CPT 8 µM, EB 40 µM, CV 20 µM, Pro 2 µM", "value": "did not repress"}, {"measurement": "transcription of Pol-II targets", "setting": "[5]; high concentration of ActD (AD2, 3 µM)", "value": "causes repression of transcription of all Pol-II targets"}]}
{"smiles": "Nc1ccc2cc3ccc(N)cc3nc2c1", "note": "[Proflavine, proflavine]", "values": [{"measurement": "UBF occupancy", "setting": "[6]", "value": "affected"}, {"measurement": "distribution (nucleolar localization) of nascent RNAs", "setting": "[3]; EB 40 µM, Pro 2 µM, CX5461 5 µM", "value": "affected the distribution of nascent RNAs"}, {"measurement": "inhibition of all transcription (5EU incorporation), effect of ActD set to be 100% inhibition", "setting": "[3]; HCT116 p53−/− cells, EB 40 µM, Pro 2 µM, CX5461 5 µM", "value": 48, "unit": "%"}, {"measurement": "pIC50", "setting": "[7]", "value": 6.46}, {"measurement": "pIC50", "setting": "[2]; HCT-116, p53 null HCT116 cells, triplicates, total RNA analyzed by S1 nuclease protection assay, read-out: IC50 (rRNA Synthesis)", "value": 6.32}, {"measurement": "inhibition of Pol-I transcription", "setting": "[8]", "value": "about 90%"}]}
